Data as given in paper PMC4376724, “Differential Phenotypic and Functional Profiles of TcCA-2 -Specific Cytotoxic CD8^+ T Cells in the Asymptomatic versus Cardiac Phase in Chagasic Patients” (PLoS ONE, 2015).
Several values for one entry are separate records, joined by “and”; a condition that tells them apart may be missing. Identical values can stand only once.

Assays:
[1] = system: PBMCs from asymptomatic HLA-A*02:01 Chagas disease patients; test: HLA-A*02:01 restriction assay: peptide-pulsed K562-A2 cells as APC, IFN-γ secretion by patient PBMC; type: cell-based, human; settings: K562-A2 cells pulsed with 1 mM peptide 1 h, co-cultured 30 h with PBMC of asymptomatic (IND) patients; positive = IFN-γ at least two folds un-stimulated cells
HLA-A*02:01 = HLA-A*02:01 (Homo sapiens, UniProt P04439, D140Y/D185E/D98H/E176V/E277Q/G131W/G231S/I119V/I121R/I166T/I218V/L300P/L318F/N151K/N90K/P208A/P217A/Q86G/Q94H/R138H/R169H/T345S); test: HLA-A*02:01 binding assay (surface stabilization on TAP-deficient T2 cells); settings: different peptide concentrations in duplicate, serum-free RPMI, overnight at room temperature, PE anti-HLA-A2 (BB7.2) flow cytometry, referred to 25 μM HB-ENV335-343 peptide
Procedure: (§1) TAP-deficient T2 cells were used for the HLA-A*02:01 binding assays and the K562-A2 cells for the HLA-A*02:01 restriction assay. The cells were cultured in complete RPMI medium supplemented with 10% of inactivated Fetal Calf Serum (iFCS), 2 mM glutamine, and 100 U/ml penicillin. K562-A2 cells, expressing the HLA-A*02:01 molecule were cultured in the presence of […] of G-418, as previously described. The T2 and K562-A2 cells were kindly provided by Dr. Pedro Romero (University of Lausanne) and by Dr Peter Ponsaerts (University of Antwerp, with the permission of Dr. Cedrik Britten from Johanes Gutenberg-University Mainz), respectively.
HLA-A*02:01 surface stabilization test was carried out as described in [42]. Briefly, TAP-deficient T2 cells were loaded with different concentrations of each peptide, in duplicate in serum-free RPMI medium, and incubated overnight at room temperature. Afterwards, the cells were stained with a PE-labeled HLA-A2-specific antibody (BB7.2 clone, BD biosciences) and analyzed by flow cytometry. The high-affinity HLA-A*02:01-binding peptide […] ([…]) was included as internal standard. Affinity data were calculated as the percentage of maximum complex stabilization, as described in [44]. The following equation was used: % of maximal stabilization = 100 x [(mean fluorescence with peptide)–(background mean fluorescence)]/[(mean fluorescence with 25 μM HBENV335-343 peptide)–(background mean fluorescence)]. Background value was obtained with cells incubated in the same conditions without peptide.
The percentage of maximal binding stabilization of these eight TcCA-2 peptides was evaluated using TAP-deficient T2 cells and different concentrations of each peptide. […] The maximal binding affinity is shown for each peptide in Table 1.

[2] = system: PBMCs from asymptomatic HLA-A*02:01 Chagas disease patients; test: HLA-A*02:01 restriction assay: peptide-pulsed K562-A2 cells as APC, IFN-γ secretion by patient PBMC; type: cell-based, human; settings: range among patients with a positive response; K562-A2 pulsed with 1 mM peptide 1 h, 30 h co-culture; K562 level subtracted
Procedure: as §1
For the screening of the recognition of TcCA-2 epitopes by Chagas disease patients, 10 HLA-A*02:01 adult patients in the asymptomatic phase of the disease (IND) were enrolled. For cytotoxicity, functional activity determinations and phenotypic characterization another group of 19 HLA-A*02:01 adults Chagas disease patients and 9 healthy donors were analyzed. These patients were at the chronic stage of the disease and were considered to be at the asymptomatic phase (IND, n = 8) if there was no evidence of having cardiac or gastrointestinal disorders. Chronic Chagas cardiomyopathy patients (CCC, n = 11) were stratified into G1 to G3 stages following Kuschnir classification according to clinical criteria and radiological, electrocardiographic and echocardiography analyses. The number of patients was the one recommended by the Hospital Ethical Committee. […] The patients were enrolled in both studies (functional and phenotypic characterization, IND n = 6 and CCC n = 7) when the available number of purified PBMC (limited by the cellular number isolated from each subject) was enough for both analyses. Another four CCC patients had to be enrolled to perform the phenotypic analysis in order to reach statistical significance.
Cytokine secretion (IL-4, IL-10, IL-6, IFN-γ, TNF-α) was determined in the supernatants of PBMC from Chagas disease patients and healthy donors, after in vitro stimulation with 1 μM of each peptide for 30 h at 37°C in RPMI supplemented with 10% iFBS as explained before. The secretion profile was determined by using a bead-based multiplex immunoassay system (Bio-Plex, Bio-Rad), following the manufacturer's instructions. The response was considered positive if an increase in the secretion of cytokines was at least three folds higher than the secretion by un-stimulated cells (basal secretion level) and at least, 4 pg/mL for IL-4, 2 pg/mL for IL-10, 15 pg/mL for IL-6 and 5 pg/mL for IFN-γ and TNF-α. The positive control consisted of 50 ng/mL Phorbol 12 myristate 13-acetate (PMA) and 500 ng/mL ionomycin (Sigma). Cytokine levels were quantified in each sample by using the Bio-Plex Manager software 4.1 (Bio-Rad). […]

Row | Sequence | Chagas disease patient: patients with positive response in relation with the total number of patients per assay [1] | % maximal stabilization (HLA-A*02:01) [%] | INF-γ secretion range [2] [pg/mL]
1 | AAAGDKLSL [TcCA-2_273-281] | 1 out of 10 and 1/10 | 12.41 | 8.6
2 | ALQVTNHRYL [TcCA-2_657-666] | Two out of 9 and 2/9 | 21.49 | 6.1 to 6.7
3 | ALRNLRVFL [TcCA-2_607-615] | 3 out of 9 and 3/9 | 29.54 | 6.4 to 15.1
4 | TVFDASRSTV [TcCA-2_442-451] | 2 out of 10 and 2/10 | 24.44 | 5.8 to 6.9
